The values that follow come from patent publication US20150344540A1, “NOVEL GLP-1 RECEPTOR AGONISTS WITH CHOLESTEROL EFFLUX ACTIVITY” (NOVO NORDISK A/S, priority 2012, published 2015).

As a reminder, the pEC50 is the EC50 on a negative log10 scale, so that one unit is a factor of ten. In general, Vd refers to a proportionality between amount in the body and measured concentration, not a real space. Usually clearance stands for the volume of plasma or blood freed of the substance per unit of time. A low value points to inefficient removal. By half-life is commonly meant the time needed for the level to fall by half in the phase considered. A low value points to fast loss.

The target of one data set is human GLP-1 receptor (Homo sapiens, UniProt P43220). In words: Functional GLP-1 receptor assay, in vitro potency (CRE luciferase; whole cells). It is filed as cell-based. Particulars: BHK cells expressing human GLP-1 receptor.
The subject of data set [1] is Mouse monocyte/macrophage cell line, RAW 264.7. The experiment in a line: Cholesterol efflux assay (3H-cholesterol, macrophage cell line). It is filed as cell-based. Particulars: RAW 264.7, 4 hrs incubation, 0.1% human serum albumin, ABCA1-mediated efflux.
The nature of data set [2]: Pharmacokinetics in mini-pigs after i.v. administration. Particulars: female, Göttingen, minipig, plasma, iv, 5 nmol/kg; for half-life: T1/2 Mean Value, Göttingen mini-pigs, N=3. Put shortly:
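Female Göttingen mini-pigs (15-20 kg, N=3) received 5 nmol/kg i.v. via central venous catheter. Plasma levels of N-terminally intact peptide measured by LOCI immunoassay with N-terminal and mid-/C-terminal antibodies; non-compartmental analysis of individual profiles.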

[3] abbreviates: 0% HSA, read-out: GLP1R CRE luc 0% HSA EC50 Mean Value.
Where [4] appears, read: GLP1R CRE luc 1% HSA EC50 Mean Value, 1% HSA.

pEC50: −log10 of the molar value. Read-outs that look alike come from different tables or passages of the source. Where a SMILES comes first, the peptide text is derived from it. [ ]: non-standard residue; d: D form. Aib = CC(C)(N)C(=O)O

Sequence of human GLP-1 receptor (P43220 24-463): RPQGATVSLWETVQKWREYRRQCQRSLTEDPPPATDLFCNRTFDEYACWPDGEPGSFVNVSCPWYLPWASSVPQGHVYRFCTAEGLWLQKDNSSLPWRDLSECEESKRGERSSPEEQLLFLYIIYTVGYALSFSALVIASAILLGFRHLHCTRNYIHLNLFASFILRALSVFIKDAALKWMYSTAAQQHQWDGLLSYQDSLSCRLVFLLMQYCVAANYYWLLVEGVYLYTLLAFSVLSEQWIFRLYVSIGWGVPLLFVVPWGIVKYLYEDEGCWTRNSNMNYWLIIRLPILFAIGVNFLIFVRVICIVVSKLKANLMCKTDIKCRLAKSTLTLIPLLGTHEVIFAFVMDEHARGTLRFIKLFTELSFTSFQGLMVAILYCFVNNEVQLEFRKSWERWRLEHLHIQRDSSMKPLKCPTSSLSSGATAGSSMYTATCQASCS

For the molecule `CC[C@H](C)[C@H](NC(=O)[C@H](Cc1ccccc1)NC(=O)[C@H](CCC(=O)O)NC(=O)[C@H](CCCCN)NC(=O)[C@@H](NC(=O)[C@H](C)NC(=O)[C@H](CCC(=O)O)NC(=O)CNC(=O)[C@H](CCC(=O)O)NC(=O)[C@H](CC(C)C)NC(=O)[C@H](Cc1ccc(O)cc1)NC(=O)[C@H](CO)NC(=O)[C@H](CO)NC(=O)[C@@H](NC(=O)[C@H](CC(=O)O)NC(=O)[C@H](CO)NC(=O)[C@@H](NC(=O)[C@H](Cc1ccccc1)NC(=O)[C@@H](NC(=O)CNC(=O)[C@H](CCC(=O)O)NC(=O)C(C)(C)NC(=O)[C@@H](N)Cc1c[nH]cn1)[C@@H](C)O)[C@@H](C)O)C(C)C)C(C)C)C(=O)N[C@@H](C)C(=O)N[C@@H](Cc1c[nH]c2ccccc12)C(=O)N[C@@H](CC(C)C)C(=O)N[C@H](C(=O)N[C@@H](CCC(=O)O)C(=O)N[C@@H](CCCCN)C(=O)NC(C)(C)C(=O)NCC(=O)N[C@@H](CCC(=O)O)C(=O)N[C@@H](Cc1ccccc1)C(=O)N[C@@H](CC(C)C)C(N)=O)C(C)C` [Compound 32] (H-H[Aib]EGTFTSDVSSYLEGEAVKEFIAWLVEK[Aib]GEFL-NH2), on human GLP-1 receptor (setting [3]), the negative logarithm of the EC50 (pEC50) was 10.41. On human GLP-1 receptor (setting [4]), this molecule had a pEC50 of 10.89. Also, the “4 h Cholesterol Efflux Emax” value in data set [1] was 85%. In data set [2], this molecule gave a C0 of 108 nM, a distribution volume (Vd) of 0.0769 L/kg, a clearance of 1.04 mL/h/kg and a half-life of 51.3 h.

As to `CC[C@H](C)[C@H](NC(=O)[C@H](Cc1ccccc1)NC(=O)[C@H](CCC(=O)O)NC(=O)[C@H](CCCCN)NC(=O)[C@@H](NC(=O)[C@H](C)NC(=O)[C@H](CCC(=O)O)NC(=O)CNC(=O)[C@H](CCC(=O)O)NC(=O)[C@H](CC(C)C)NC(=O)[C@H](Cc1ccc(O)cc1)NC(=O)[C@H](CO)NC(=O)[C@H](CO)NC(=O)[C@@H](NC(=O)[C@H](CC(=O)O)NC(=O)[C@H](CO)NC(=O)[C@@H](NC(=O)[C@H](Cc1ccccc1)NC(=O)[C@@H](NC(=O)CNC(=O)[C@H](CCC(=O)O)NC(=O)C(C)(C)NC(=O)[C@@H](N)Cc1c[nH]cn1)[C@@H](C)O)[C@@H](C)O)C(C)C)C(C)C)C(=O)N[C@@H](C)C(=O)N[C@@H](Cc1c[nH]c2ccccc12)C(=O)N[C@@H](CC(C)C)C(=O)N[C@H](C(=O)N[C@@H](CCC(=O)O)C(=O)N[C@@H](CCCCN)C(=O)NC(C)(C)C(=O)N[C@@H](CCCCN)C(=O)N[C@@H](CCC(=O)O)C(=O)N[C@@H](Cc1ccccc1)C(N)=O)C(C)C` [Compound 62, [Aib8,Glu23,Val25,Glu34,Lys35,Aib36,Lys37]-GLP-1-(7-37)-peptidyl-Glu-Phe amide] (H-H[Aib]EGTFTSDVSSYLEGEAVKEFIAWLVEK[Aib]KEF-NH2), the pEC50 on human GLP-1 receptor (setting [3]) is 10.66. At human GLP-1 receptor (setting [4]), the negative logarithm of the EC50 (pEC50) is 10.82. Further, in data set [1], the “4 h Cholesterol Efflux Emax” value came out at 111%. In data set [2], this molecule gave a C0 of 50.6 nM, a volume of distribution (Vd) of 0.0654 L/kg, a clearance of 2.66 mL/h/kg and a half-life of 16.7 h.

For `CC[C@H](C)[C@H](NC(=O)[C@H](Cc1ccccc1)NC(=O)[C@H](CCC(=O)O)NC(=O)[C@H](CCCCN)NC(=O)[C@@H](NC(=O)[C@H](C)NC(=O)[C@H](CCC(=O)O)NC(=O)CNC(=O)[C@H](CCC(=O)O)NC(=O)[C@H](CC(C)C)NC(=O)[C@H](Cc1ccc(O)cc1)NC(=O)[C@H](CO)NC(=O)[C@H](CO)NC(=O)[C@@H](NC(=O)[C@H](CC(=O)O)NC(=O)[C@H](CO)NC(=O)[C@@H](NC(=O)[C@H](Cc1ccccc1)NC(=O)[C@@H](NC(=O)CNC(=O)[C@H](CCC(=O)O)NC(=O)C(C)(C)NC(=O)[C@@H](N)Cc1c[nH]cn1)[C@@H](C)O)[C@@H](C)O)C(C)C)C(C)C)C(=O)N[C@@H](C)C(=O)N[C@@H](Cc1c[nH]c2ccccc12)C(=O)N[C@@H](CC(C)C)C(=O)N[C@H](C(=O)N[C@@H](CCC(=O)O)C(=O)N[C@@H](CCCCN)C(=O)NC(C)(C)C(=O)N[C@@H](CCCCN)C(N)=O)C(C)C` [Compound 11, [Aib8,Glu23,Val25,Glu34,Lys35,Aib36,Lys37]-GLP-1-(7-37)-peptide amide] (H-H[Aib]EGTFTSDVSSYLEGEAVKEFIAWLVEK[Aib]K-NH2), the pEC50 at human GLP-1 receptor (setting [3]) was 10.82. The same molecule showed a pEC50 on human GLP-1 receptor (setting [4]) of 11.40. Further, the “4 h Cholesterol Efflux Emax” value in data set [1] was determined as 135%. In data set [2], this molecule had a C0 of 115 nM, a volume of distribution (Vd) of 0.0613 L/kg, a clearance of 54.9 mL/h/kg and a half-life of 0.8 h.

On to `CC[C@H](C)[C@H](NC(=O)[C@H](Cc1ccccc1)NC(=O)[C@H](CCC(=O)O)NC(=O)[C@H](CCCCN)NC(=O)[C@@H](NC(=O)[C@H](C)NC(=O)[C@H](CCC(=O)O)NC(=O)CNC(=O)[C@H](CCC(=O)O)NC(=O)[C@H](CC(C)C)NC(=O)[C@H](Cc1ccc(O)cc1)NC(=O)[C@H](CO)NC(=O)[C@H](CO)NC(=O)[C@@H](NC(=O)[C@H](CC(=O)O)NC(=O)[C@H](CO)NC(=O)[C@@H](NC(=O)[C@H](Cc1ccccc1)NC(=O)[C@@H](NC(=O)CNC(=O)[C@H](CCC(=O)O)NC(=O)C(C)(C)NC(=O)[C@@H](N)Cc1c[nH]cn1)[C@@H](C)O)[C@@H](C)O)C(C)C)C(C)C)C(=O)N[C@@H](C)C(=O)N[C@@H](Cc1c[nH]c2ccccc12)C(=O)N[C@@H](CC(C)C)C(=O)N[C@H](C(=O)N[C@@H](CCC(=O)O)C(=O)N[C@@H](CCCCN)C(=O)N[C@H](C(=O)N[C@@H](CCCCN)C(=O)N[C@@H](CCC(=O)O)C(=O)N[C@@H](CCCCN)C(=O)N[C@@H](CC(C)C)C(N)=O)C(C)C)C(C)C` [Compound 118, [Aib8,Glu23,Val25,Glu34,Lys35,Val36,Lys37]-GLP-1-(7-37)-peptidyl-Glu-Lys-Leu amide] (H-H[Aib]EGTFTSDVSSYLEGEAVKEFIAWLVEKVKEKL-NH2), for which, at human GLP-1 receptor (setting [3]), the pEC50 is 10.23. For the same molecule, at human GLP-1 receptor (setting [4]), the pEC50 was 10.54. Besides, the “4 h Cholesterol Efflux Emax” value in data set [1] is 136%. In data set [2], this molecule gave a C0 of 62.9 nM, a volume of distribution (Vd) of 0.0809 L/kg, a clearance of 4.99 mL/h/kg and a half-life of 11.2 h.

In the case of `CC[C@H](C)[C@H](NC(=O)[C@H](Cc1ccccc1)NC(=O)[C@H](CCC(=O)O)NC(=O)[C@H](CCCCN)NC(=O)[C@H](C)NC(=O)[C@H](C)NC(=O)[C@H](CCC(N)=O)NC(=O)CNC(=O)[C@H](CCC(=O)O)NC(=O)[C@H](CC(C)C)NC(=O)[C@H](Cc1ccc(O)cc1)NC(=O)[C@H](CO)NC(=O)[C@H](CO)NC(=O)[C@@H](NC(=O)[C@H](CC(=O)O)NC(=O)[C@H](CO)NC(=O)[C@@H](NC(=O)[C@H](Cc1ccccc1)NC(=O)[C@@H](NC(=O)CNC(=O)[C@H](CCC(=O)O)NC(=O)C(C)(C)NC(=O)[C@@H](N)Cc1c[nH]cn1)[C@@H](C)O)[C@@H](C)O)C(C)C)C(=O)N[C@@H](C)C(=O)N[C@@H](Cc1c[nH]c2ccccc12)C(=O)N[C@@H](CC(C)C)C(=O)N[C@H](C(=O)N[C@@H](CCC(=O)O)C(=O)N[C@@H](CCCCN)C(=O)NC(C)(C)C(=O)N[C@@H](CCCCN)C(=O)N[C@@H](CCC(=O)O)C(=O)N[C@@H](Cc1ccccc1)C(=O)N[C@@H](CC(C)C)C(N)=O)C(C)C` [Compound 45, [Aib8,Glu34,Lys35,Aib36,Lys37]-GLP-1-(7-37)-peptidyl-Glu-Phe-Leu amide], at human GLP-1 receptor (setting [3]), the negative-log EC50 (pEC50) was 9.97. In addition, at human GLP-1 receptor (setting [4]), the negative-log EC50 (pEC50) is 10.38. Moreover, in data set [1], the “4 h Cholesterol Efflux Emax” value was 97%. In data set [2], this molecule gave a C0 of 147 nM, a distribution volume (Vd) of 0.154 L/kg, a clearance of 2.39 mL/h/kg and a half-life of 44.9 h.

Molecule `CC[C@H](C)[C@H](NC(=O)[C@H](Cc1ccccc1)NC(=O)[C@H](CCC(=O)O)NC(=O)[C@H](CCCCN)NC(=O)[C@@H](NC(=O)[C@H](CCCCN)NC(=O)[C@H](CCC(=O)O)NC(=O)CNC(=O)[C@H](CCC(=O)O)NC(=O)[C@H](CC(C)C)NC(=O)[C@H](Cc1ccc(O)cc1)NC(=O)[C@H](CO)NC(=O)[C@H](CO)NC(=O)[C@@H](NC(=O)[C@H](CC(=O)O)NC(=O)[C@H](CO)NC(=O)[C@@H](NC(=O)[C@H](Cc1ccccc1)NC(=O)[C@@H](NC(=O)CNC(=O)[C@H](CCC(=O)O)NC(=O)C(C)(C)NC(=O)[C@@H](N)Cc1c[nH]cn1)[C@@H](C)O)[C@@H](C)O)C(C)C)C(C)C)C(=O)N[C@@H](C)C(=O)N[C@@H](Cc1c[nH]c2ccccc12)C(=O)N[C@@H](CC(C)C)C(=O)N[C@H](C(=O)N[C@@H](CCC(=O)O)C(=O)NCC(=O)NC(C)(C)C(=O)N[C@@H](CCCCN)C(=O)N[C@@H](CCC(=O)O)C(=O)N[C@@H](Cc1ccccc1)C(=O)N[C@@H](CC(C)C)C(N)=O)C(C)C` [Compound 64, [Aib8,Glu23,Lys24,Val25,Glu34,Aib36,Lys37]-GLP-1-(7-37)-peptidyl-Glu-Phe-Leu amide] (H-H[Aib]EGTFTSDVSSYLEGEKVKEFIAWLVEG[Aib]KEFL-NH2) gave a pEC50 at human GLP-1 receptor (setting [4]) of 9.95. In data set [1], the “4 h Cholesterol Efflux Emax” value was found to be 100%. In data set [2], this molecule had a C0 of 86.9 nM, a Vd of 0.0879 L/kg, a clearance of 2.41 mL/h/kg and a half-life of 25.2 h.
